Data taken from patent US20170121319A1, “Herbicidal Compounds” (Syngenta Participations AG, priority 2014, published 2017).

What was measured:
Assay type in all cases: in vivo
Design in all cases: key: 5=total damage to plant; 0=no damage to plant
[1] = test system: ABUTH = Abutilon theophrasti; assay: Pre-emergence herbicidal activity, glasshouse pot test
Description: (§1) Seeds of a variety of test species were sown in standard soil in pots. After cultivation for one day (pre-emergence) under controlled conditions in a glasshouse (at 24/16° C., day/night; 14 hours light; 65% humidity), the plants were sprayed with an aqueous spray solution derived from the formulation of the technical active ingredient in acetone/water (50:50) solution containing 0.5% Tween 20 (polyoxyethelyene sorbitan monolaurate, CAS RN 9005-64-5). The test plants were then grown in a glasshouse under controlled conditions (at 24/16° C., day/night; 14 hours light; 65% humidity) and watered twice daily. After 13 days, the test was evaluated (5=total damage to plant; 0=no damage to plant). Pre- and post-emergence testing was carried out as detailed above on the compounds A1, A2, A4 and A5 and their respective S-enantiomers.

[2] = test system: AMARE = Amaranthus retroflexus; assay: as above
Description: as §1

[3] = test system: ECHCG = Echinochloa crus-galli; assay: as above
Description: as §1

LOLPE [4] = assay: as above
Description: as §1

SETFA = Setaria faberi [5] = assay: as above; conditions: for SEFTA damage score (0-5): comparison of enantiomers; for SETFA damage score (0-5): 1000 g/Ha, evaluated after 13 days
Description: as §1

ZEAMX = Zea mays [6] = assay: as above
Description: as §1

[7] = test system: ABUTH = Abutilon theophrasti; assay: Post-emergence herbicidal activity, glasshouse pot test
Description: (§2) Seeds of a variety of test species were sown in standard soil in pots. After 8 days cultivation (post-emergence) under controlled conditions in a glasshouse (at 24/16° C., day/night; 14 hours light; 65% humidity), the plants were sprayed with an aqueous spray solution derived from the formulation of the technical active ingredient in acetone/water (50:50) solution containing 0.5% Tween 20 (polyoxyethelyene sorbitan monolaurate, CAS RN 9005-64-5). The test plants were then grown in a glasshouse under controlled conditions (at 24/16° C., day/night; 14 hours light; 65% humidity) and watered twice daily. After 13 days, the test was evaluated (5=total damage to plant; 0=no damage to plant). Pre- and post-emergence testing was carried out as detailed above on the compounds A1, A2, A4 and A5 and their respective S-enantiomers.

[8] = test system: AMARE = Amaranthus retroflexus; assay: as above
Description: as §2

[9] = test system: ECHCG = Echinochloa crus-galli; assay: as above
Description: as §2

LOLPE [10] = assay: as above
Description: as §2

SETFA = Setaria faberi [11] = assay: as above; conditions: for SEFTA damage score (0-5): comparison of enantiomers; for SETFA damage score (0-5): 1000 g/Ha, evaluated after 13 days
Description: as §2

ZEAMX = Zea mays [12] = assay: as above
Description: as §2

[13] = comparison of enantiomers, 62.5 g/Ha
[14] = comparison of enantiomers, 250 g/Ha
[15] = 1000 g/Ha, evaluated after 13 days

| SMILES | ABUTH damage score (0-5) [1, 13] | ABUTH damage score (0-5) [1, 14] | AMARE damage score (0-5) [2, 13] | AMARE damage score (0-5) [2, 14] | ECHCG damage score (0-5) [3, 13] | ECHCG damage score (0-5) [3, 14] | LOLPE damage score (0-5) (LOLPE [4]; [13]) | SEFTA damage score (0-5) (SETFA = Setaria faberi [5]; 250 g/Ha) | ZEAMX damage score (0-5) (ZEAMX = Zea mays [6]; [13]) | ZEAMX damage score (0-5) (ZEAMX = Zea mays [6]; [14]) | ABUTH damage score (0-5) [7, 13] | ABUTH damage score (0-5) [7, 14] | AMARE damage score (0-5) [8, 13] | AMARE damage score (0-5) [8, 14] | ECHCG damage score (0-5) [9, 13] | ECHCG damage score (0-5) [9, 14] | LOLPE damage score (0-5) (LOLPE [10]; [13]) | LOLPE damage score (0-5) (LOLPE [10]; [14]) | SEFTA damage score (0-5) (SETFA = Setaria faberi [11]; 62.5 g/Ha) | ZEAMX damage score (0-5) (ZEAMX = Zea mays [12]; [14]) | also measured |
| --- | --- | --- | --- | --- | --- | --- | --- | --- | --- | --- | --- | --- | --- | --- | --- | --- | --- | --- | --- | --- | --- |
| CO[C@H]1C(O)N(c2cc(C(C)(C)C)on2)C(=O)N1C (stereo partly drawn) [A1 S-enantiomer, reference compound] | 0 | 0 | 5 | 5 | 0 | 0 | 0 | 0 | 0 | 0 | 0 | 2 | 5 | 5 | 1 | 1 | 0 | 1 | 0 | 1 | LOLPE damage score (0-5) (LOLPE [4]; [14]): 0; SEFTA damage score (0-5) (SETFA = Setaria faberi [5]; 62.5 g/Ha): 0; SEFTA damage score (0-5) (SETFA = Setaria faberi [11]; 250 g/Ha): 2; ZEAMX damage score (0-5) (ZEAMX = Zea mays [12]; [13]): 1 |
| CO[C@@H]1C(O)N(c2cc(C(C)(C)C)on2)C(=O)N1C (some centres unmarked) [Example A1] | 4 | 2 | 5 | 5 | 5 | 5 | 1 | 5 | 4 | 5 | 2 | 5 | 5 | 5 | 5 | 5 | 5 | 5 | 5 | 5 | ABUTH damage score (0-5) [1, 15]: 5; AMARE damage score (0-5) [2, 15]: 5; ECHCG damage score (0-5) [3, 15]: 5; LOLPE damage score (0-5) (LOLPE [4]; [15]): 5; LOLPE damage score (0-5) (LOLPE [4]; [14]): 5; SETFA damage score (0-5) (SETFA = Setaria faberi [5]): 5; SEFTA damage score (0-5) (SETFA = Setaria faberi [5]; 62.5 g/Ha): 4; ZEAMX damage score (0-5) (ZEAMX = Zea mays [6]; [15]): 3; ABUTH damage score (0-5) [7, 15]: 5; AMARE damage score (0-5) [8, 15]: 5; ECHCG damage score (0-5) [9, 15]: 5; LOLPE damage score (0-5) (LOLPE [10]; [15]): 5; SETFA damage score (0-5) (SETFA = Setaria faberi [11]): 5; SEFTA damage score (0-5) (SETFA = Setaria faberi [11]; 250 g/Ha): 5; ZEAMX damage score (0-5) (ZEAMX = Zea mays [12]; [15]): 5; ZEAMX damage score (0-5) (ZEAMX = Zea mays [12]; [13]): 5 |
| CCO[C@@H]1C(O)N(c2cc(C(C)(C)F)on2)C(=O)N1C (some centres unmarked) [Example A5] | 5 | 5 | 5 | 5 | 5 | 2 | 4 | 5 | 5 | 5 | 5 | 5 | 5 | 5 | 5 | 5 | 5 | 5 | 5 | 5 | ABUTH damage score (0-5) [1, 15]: 5; AMARE damage score (0-5) [2, 15]: 5; ECHCG damage score (0-5) [3, 15]: 5; LOLPE damage score (0-5) (LOLPE [4]; [15]): 5; LOLPE damage score (0-5) (LOLPE [4]; [14]): 5; SETFA damage score (0-5) (SETFA = Setaria faberi [5]): 5; SEFTA damage score (0-5) (SETFA = Setaria faberi [5]; 62.5 g/Ha): 5; ZEAMX damage score (0-5) (ZEAMX = Zea mays [6]; [15]): 3; ABUTH damage score (0-5) [7, 15]: 5; AMARE damage score (0-5) [8, 15]: 5; ECHCG damage score (0-5) [9, 15]: 5; LOLPE damage score (0-5) (LOLPE [10]; [15]): 5; SETFA damage score (0-5) (SETFA = Setaria faberi [11]): 5; SEFTA damage score (0-5) (SETFA = Setaria faberi [11]; 250 g/Ha): 5; ZEAMX damage score (0-5) (ZEAMX = Zea mays [12]; [15]): 5; ZEAMX damage score (0-5) (ZEAMX = Zea mays [12]; [13]): 5 |
| CCO[C@H]1C(O)N(c2cc(C(C)(C)C)on2)C(=O)N1C (single isomer, unassigned) [A2 S-enantiomer, reference compound] | 1 | 1 | 5 | 5 | 0 | 3 | 1 | 0 | 1 | 1 | 1 | 1 | 5 | 5 | 0 | 1 | 0 | 1 | 0 | 1 | – |
| CCO[C@@H]1C(O)N(c2cc(C(C)(C)C)on2)C(=O)N1C (single isomer, unassigned) [Example A2] | 3 | 3 | 5 | 5 | 5 | 4 | 3 | 5 | 4 | 4 | 5 | 5 | 5 | 5 | 5 | 5 | – | 5 | 3 | 5 | ABUTH damage score (0-5) [1, 15]: 5; AMARE damage score (0-5) [2, 15]: 5; ECHCG damage score (0-5) [3, 15]: 4; SETFA damage score (0-5) (SETFA = Setaria faberi [5]): 1; ZEAMX damage score (0-5) (ZEAMX = Zea mays [6]; [15]): 2; ABUTH damage score (0-5) [7, 15]: 5; AMARE damage score (0-5) [8, 15]: 5; ECHCG damage score (0-5) [9, 15]: 5; SETFA damage score (0-5) (SETFA = Setaria faberi [11]): 5; ZEAMX damage score (0-5) (ZEAMX = Zea mays [12]; [15]): 4; ZEAMX damage score (0-5) (ZEAMX = Zea mays [12]; [13]): 5 |
| COC[C@H]1C(O)N(c2cc(C(C)(C)C)on2)C(=O)N1C (stereo partly drawn) [A4 S-enantiomer, reference compound] | 0 | 0 | 1 | 3 | 0 | 0 | 0 | 0 | 0 | 0 | 0 | 0 | 0 | 2 | 0 | 1 | 0 | 0 | 0 | 0 | LOLPE damage score (0-5) (LOLPE [4]; [14]): 0; SEFTA damage score (0-5) (SETFA = Setaria faberi [5]; 62.5 g/Ha): 0; SEFTA damage score (0-5) (SETFA = Setaria faberi [11]; 250 g/Ha): 0; ZEAMX damage score (0-5) (ZEAMX = Zea mays [12]; [13]): 0 |
| CCO[C@H]1C(O)N(c2cc(C(C)(C)F)on2)C(=O)N1C (stereo partly drawn) [A5 S-enantiomer, reference compound] | 0 | 0 | 5 | 5 | 0 | 0 | 0 | 0 | 0 | 0 | 0 | 1 | 1 | 5 | 0 | 0 | 0 | 0 | 0 | 0 | LOLPE damage score (0-5) (LOLPE [4]; [14]): 0; SEFTA damage score (0-5) (SETFA = Setaria faberi [5]; 62.5 g/Ha): 0; SEFTA damage score (0-5) (SETFA = Setaria faberi [11]; 250 g/Ha): 1; ZEAMX damage score (0-5) (ZEAMX = Zea mays [12]; [13]): 0 |
